The results in this text go back to patent US7109338B2, “1,2-disubstituted 1,4-dihydro-4-oxoquinoline compounds” (priority 1999, dated 2006).

≈ marks a conversion by molar mass, not a printed value.

The test system of series [1] is coxsackievirus type A7 (CA7). The series can be described thus: In vitro anti-picornavirus activity (MTT), CA7. Particulars: HeLa-S3 cells, MTT method, 37° C. The format is cell-based. Background: Formazan colour is commonly taken as a measure of viable cells.
In the next series the test system is HRV 89 (41617-Gallo). The series can be described thus: Anti-rhinovirus activity (MTT), HRV89. The format is cell-based, human rhinovirus. Particulars: HeLa (Ohio strain) cells, MTT method, 33° C.
Series [2] deals with human rhinovirus type 1B (HRV 1B, B632). The series can be described thus: Anti-rhinovirus activity (MTT), HRV1B. The format is cell-based. Particulars: HeLa (Ohio strain) cells, MTT method, 33° C.
For the next series, the system named is HRV 2 (HGP). The series can be described thus: Anti-rhinovirus activity (MTT), HRV2. The format is cell-based, human rhinovirus. Particulars: HeLa (Ohio strain) cells, MTT method, 33° C.
In the next series the test system is HeLa (Ohio strain)cells. The series can be described thus: Cytotoxicity (MTT, without virus), HeLa(Ohio). Particulars: HeLa(Ohio), no virus, incubated for 4 days.
Series [3] has as its system coxsackievirus type B4 (CB4,JVB). The series is described as follows: In vitro anti-picornavirus activity (MTT), CB4. The format is cell-based. Particulars: HeLa cells, MTT method, 37° C.
Another series relates to HeLa cells. The series is described as follows: Cytotoxicity (MTT, without virus), HeLa. Particulars: HeLa, no virus, incubated for 4 days.
Series [4] concerns echovirus type 11 (Echo 11, Gregory). The series can be described thus: In vitro anti-picornavirus activity (MTT), Echo 11. The format is cell-based. Particulars: HeLa-S3 cells, MTT method, 37° C.
Another series relates to HeLa-S3 cells. The series is described as follows: Cytotoxicity (MTT, without virus), HeLa-S3. Particulars: HeLa-S3, no virus, incubated for 4 days.
The test system of series [5] is Poliovirus type 1 (Polio 1, Sabin). The series can be described thus: microbe, parasite or virus in culture. The format is cell-based.

In the case of `COc1ccc(-c2c(C)c(=O)c3c(C)c(OCC(C)C)ccc3n2C)cc1C` [Compound A190], the “IC50 CA7” value in series [1] was found to be 3.2 µg/mL (≈ 8.43 µM). Besides, the “IC50 HRV89” value in the series with HRV 89 (41617-Gallo) was 0.28 µg/mL (≈ 0.738 µM). The “IC50 HRV1B” value in series [2] was found to be 2.0 µg/mL (≈ 5.27 µM). Besides, the “IC50 HRV2” value in the series on HRV 2 (HGP) stood at 0.57 µg/mL (≈ 1.5 µM). For the same compound, the “Cytotoxicity CC50 HeLa(Ohio)” value in the series with HeLa (Ohio strain)cells was more than 4 µg/mL. Also, the “IC50 CB4” value in series [3] worked out at 2.4 µg/mL (≈ 6.32 µM). Also, the “Cytotoxicity CC50 HeLa” value in the series on HeLa cells is more than 4 µg/mL. In addition, the “IC50 Echo 11” value in series [4] turned out to be 0.23 µg/mL (≈ 0.606 µM). Also, in the series on HeLa-S3 cells, the “Cytotoxicity CC50 HeLa-S3” value was more than 4 µg/mL. For the same compound, the “IC50 Polio 1” value in series [5] stood at 0.58 µg/mL (≈ 1.53 µM).
Turning to `Cc1c(-c2ccccc2)n(C)c2ccc(OCC(C)C)c(N)c2c1=O.Cl` [Compound A194], the “IC50 CA7” value in [1] turned out to be 1.7 µg/mL. Besides, in the series with HRV 89 (41617-Gallo), the “IC50 HRV89” value turned out to be 0.18 µg/mL. Also, the “IC50 HRV1B” value in series [2] was found to be 0.05 µg/mL. Besides, the “IC50 HRV2” value with HRV 2 (HGP) was found to be 0.49 µg/mL. Further, the “Cytotoxicity CC50 HeLa(Ohio)” value in the series with HeLa (Ohio strain)cells is more than 2.5 µg/mL. The “IC50 CB4” value in [3] stood at 1.3 µg/mL. For the same compound, the “Cytotoxicity CC50 HeLa” value in the series with HeLa cells is more than 2.5 µg/mL. Besides, in series [4], the “IC50 Echo 11” value amounted to 0.45 µg/mL. For the same compound, the “Cytotoxicity CC50 HeLa-S3” value in the series with HeLa-S3 cells was more than 2.5 µg/mL. Further, the “IC50 Polio 1” value in series [5] was found to be 0.58 µg/mL.
`COc1c(OCC(C)C)ccc2c1c(=O)c(C)c(-c1ccccc1)n2C` [Compound A196]: in [1], the “IC50 CA7” value was found to be 9.7 µg/mL (≈ 27.6 µM). For the same compound, the “IC50 HRV89” value in the series with HRV 89 (41617-Gallo) is 0.86 µg/mL (≈ 2.45 µM). Besides, the “IC50 HRV1B” value in [2] was 5.9 µg/mL (≈ 16.8 µM). The “IC50 HRV2” value in the series on HRV 2 (HGP) turned out to be 1.8 µg/mL (≈ 5.12 µM). Besides, in the series with HeLa (Ohio strain)cells, the “Cytotoxicity CC50 HeLa(Ohio)” value is more than 10 µg/mL. The “IC50 CB4” value in [3] stood at 1.9 µg/mL (≈ 5.41 µM). Also, the “Cytotoxicity CC50 HeLa” value in the series on HeLa cells is more than 10 µg/mL. Moreover, the “IC50 Echo 11” value in [4] amounted to 0.44 µg/mL (≈ 1.25 µM). In the series with HeLa-S3 cells, the “Cytotoxicity CC50 HeLa-S3” value is more than 10 µg/mL. Moreover, the “IC50 Polio 1” value in series [5] turned out to be 1.1 µg/mL (≈ 3.13 µM).
As to `COc1cc2c(=O)c(C)c(-c3ccccc3)n(C)c2cc1C(C)C` [Compound A226], the “IC50 CA7” value in series [1] was 9.7 µg/mL (≈ 30.2 µM). In the series on HRV 89 (41617-Gallo), the “IC50 HRV89” value is less than 0.033 µg/mL. Besides, in [2], the “IC50 HRV1B” value was found to be 1.6 µg/mL (≈ 4.98 µM). Moreover, in the series with HRV 2 (HGP), the “IC50 HRV2” value was 0.73 µg/mL (≈ 2.27 µM). Moreover, the “Cytotoxicity CC50 HeLa(Ohio)” value in the series with HeLa (Ohio strain)cells is more than 10 µg/mL. Also, in series [3], the “IC50 CB4” value is more than 3.3 µg/mL. Further, the “Cytotoxicity CC50 HeLa” value in the series on HeLa cells was more than 10 µg/mL. Also, the “IC50 Echo 11” value in series [4] was found to be 0.33 µg/mL (≈ 1.03 µM). In the series on HeLa-S3 cells, the “Cytotoxicity CC50 HeLa-S3” value was more than 10 µg/mL. Further, the “IC50 Polio 1” value in series [5] turned out to be 0.93 µg/mL (≈ 2.89 µM).
For `Cc1cc2c(cc1OCC(C)C)c(=O)c(C)c(-c1ccccc1)n2C` [Compound A234], in [1], the “IC50 CA7” value was 3.8 µg/mL (≈ 11.3 µM). Moreover, in the series on HRV 89 (41617-Gallo), the “IC50 HRV89” value is 0.32 µg/mL (≈ 0.954 µM). Besides, the “IC50 HRV1B” value in series [2] came to 1.0 µg/mL (≈ 2.98 µM). In the series on HRV 2 (HGP), the “IC50 HRV2” value stood at 0.26 µg/mL (≈ 0.775 µM). The “Cytotoxicity CC50 HeLa(Ohio)” value in the series with HeLa (Ohio strain)cells is more than 5 µg/mL. The “IC50 CB4” value in series [3] is 2.5 µg/mL (≈ 7.45 µM). Further, in the series on HeLa cells, the “Cytotoxicity CC50 HeLa” value is more than 5 µg/mL. In addition, the “IC50 Echo 11” value in series [4] came to 0.25 µg/mL (≈ 0.745 µM). For the same compound, the “Cytotoxicity CC50 HeLa-S3” value with HeLa-S3 cells was more than 5 µg/mL. The “IC50 Polio 1” value in [5] is 0.89 µg/mL (≈ 2.65 µM).
As to `CCn1c(-c2ccccc2)c(C)c(=O)c2cc(OCC(C)C)c(C)cc21` [Compound A235], the “IC50 CA7” value in [1] came out at 2.8 µg/mL (≈ 8.01 µM). Also, in the series with HRV 89 (41617-Gallo), the “IC50 HRV89” value was 0.35 µg/mL (≈ 1 µM). The “IC50 HRV1B” value in series [2] amounted to 0.75 µg/mL (≈ 2.15 µM). Further, in the series on HRV 2 (HGP), the “IC50 HRV2” value was determined as 0.24 µg/mL (≈ 0.687 µM). The “Cytotoxicity CC50 HeLa(Ohio)” value in the series with HeLa (Ohio strain)cells was more than 4 µg/mL. In addition, the “IC50 CB4” value in [3] was determined as 2.9 µg/mL (≈ 8.3 µM). The “Cytotoxicity CC50 HeLa” value with HeLa cells was more than 4 µg/mL. For the same compound, in series [4], the “IC50 Echo 11” value came to 0.27 µg/mL (≈ 0.773 µM). In addition, the “Cytotoxicity CC50 HeLa-S3” value with HeLa-S3 cells was more than 4 µg/mL. The “IC50 Polio 1” value in series [5] amounted to 0.72 µg/mL (≈ 2.06 µM).
As for `COc1ccc(-c2c(C)c(=O)c3cc(OCC(C)C)c(C)cc3n2C)cc1C` [Compound A237], in series [1], the “IC50 CA7” value is more than 4 µg/mL. In addition, in the series with HRV 89 (41617-Gallo), the “IC50 HRV89” value came out at 0.46 µg/mL (≈ 1.21 µM). For the same compound, the “IC50 HRV1B” value in [2] was found to be 2.0 µg/mL (≈ 5.27 µM). The “IC50 HRV2” value in the series with HRV 2 (HGP) was 0.29 µg/mL (≈ 0.764 µM). For the same compound, in the series with HeLa (Ohio strain)cells, the “Cytotoxicity CC50 HeLa(Ohio)” value is more than 4 µg/mL. In addition, the “IC50 CB4” value in series [3] came to 2.9 µg/mL (≈ 7.64 µM). The “Cytotoxicity CC50 HeLa” value with HeLa cells was more than 4 µg/mL. Moreover, the “IC50 Echo 11” value in [4] was 0.40 µg/mL (≈ 1.05 µM). Moreover, in the series on HeLa-S3 cells, the “Cytotoxicity CC50 HeLa-S3” value was more than 4 µg/mL. Further, the “IC50 Polio 1” value in series [5] was determined as 1.1 µg/mL (≈ 2.9 µM).
Turning to `Cc1c(-c2ccccc2)n(C)c2cc(C(C)C)c(OC(C)C)cc2c1=O` [Compound A258], the “IC50 CA7” value in [1] is 4.9 µg/mL (≈ 14 µM). Further, the “IC50 HRV89” value in the series with HRV 89 (41617-Gallo) was 0.66 µg/mL (≈ 1.89 µM). The “IC50 HRV1B” value in series [2] was 0.62 µg/mL (≈ 1.77 µM). For the same compound, the “IC50 HRV2” value with HRV 2 (HGP) was 0.45 µg/mL (≈ 1.29 µM). In the series with HeLa (Ohio strain)cells, the “Cytotoxicity CC50 HeLa(Ohio)” value worked out at 4.9 µg/mL. The “IC50 CB4” value in series [3] was more than 1.6 µg/mL. The “Cytotoxicity CC50 HeLa” value in the series on HeLa cells is 4.5 µg/mL. For the same compound, in series [4], the “IC50 Echo 11” value was 0.23 µg/mL (≈ 0.658 µM). Besides, in the series with HeLa-S3 cells, the “Cytotoxicity CC50 HeLa-S3” value is more than 5 µg/mL. For the same compound, the “IC50 Polio 1” value in series [5] was 0.62 µg/mL (≈ 1.77 µM).
